Measured values taken from patent US8772313B2, “Benzenesulfonyl or sulfonamide compounds suitable for treating disorders that respond to the modulation of the serotonin 5-HT6 receptor” (Abbott Laboratories, priority 2010, dated 2014).
Where a name gives a salt, the structure may show the parent alone.

Columns and labels:
h-5-HT6 receptor = biological target: T1, h-5-HT6 receptor (Homo sapiens, UniProt P50406); assay: 5-HT6 receptor binding assay (displacement of [3H]-LSD); details: membranes of HEK293 cells expressing h-5-HT6 receptor, 1 nM [3H]-LSD
T1 construct: expressed in transfected cells
T1 sequence (P50406 whole entry): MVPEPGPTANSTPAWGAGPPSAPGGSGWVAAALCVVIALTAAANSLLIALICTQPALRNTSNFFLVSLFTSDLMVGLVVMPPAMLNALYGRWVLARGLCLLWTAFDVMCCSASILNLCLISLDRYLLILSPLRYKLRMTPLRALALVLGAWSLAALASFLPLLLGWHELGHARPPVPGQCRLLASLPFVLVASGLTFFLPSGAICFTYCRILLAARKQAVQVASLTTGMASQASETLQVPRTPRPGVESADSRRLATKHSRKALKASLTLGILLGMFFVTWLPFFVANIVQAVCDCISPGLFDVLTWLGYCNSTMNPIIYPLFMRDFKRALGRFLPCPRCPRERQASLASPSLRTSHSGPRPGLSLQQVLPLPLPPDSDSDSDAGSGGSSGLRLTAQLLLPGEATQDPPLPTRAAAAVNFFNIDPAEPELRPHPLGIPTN
Description: Displacement of radioligands binding to the following cloned human receptors
Cells from stable clonal cell lines expressing the corresponding receptor (5-HT6, α1-adrenergic, dopamine D2 or histamine H1 receptors) were washed with PBS (w/o Ca^++, Mg^++) and harvested in PBS with 0.02% EDTA. The cells were collected by centrifugation at 500 g for 10 min. at 4° C., washed with PBS and centrifuged (500 g, 10 min. 4° C.). The pellets were stored at −80° C. until use. For membrane preparation, the thawed cell pellet was resuspended in ice-cold sucrose buffer (0.25 M sucrose, 10 mM Hepes (pH 7.4), 1 mM Phenylmethylsulfonyl fluoride (PMSF) in DMSO, 5 μg/ml Pepstatin-A, 3 mM EDTA, 0.025% Bacitracin) and homogenized with a Branson Sonifier W-250 (Settings: Timer 4; Output Control 3; Duty Cycle constant; 2 to 3 cycles). Cell disruption was checked with the aid of a microscope. Remaining unbroken cells were pelleted at 1.000 g for 10 min. at 4° C. The sucrose buffer supernatant was then centrifuged at 60.000 g for 1 h at 4° C. (Beckman Ultrazentrifuge XL 80). The pellet was resuspended in 30 ml ice-cold Tris buffer (20 mM TRIS (pH 7.4), 5 μg/ml Pepstatin A, 0.1 mM PMSF, 3 mM EDTA) by pipetting through a 10 ml serological pipet and centrifuged for 1 h at 4° C. at 60.000 g. A final resuspension was performed in a small volume of ice-cold Tris buffer (see above) by pressing through a serological pipet followed by ultrasonic treatment with a Branson Sonifier W-250 (Settings: Timer 1; Output Control 3; Duty Cycle constant; 1 cycle). Protein concentration was determined (BCA-Kit; Pierce) and aliquots stored at −80° C. or in liquid nitrogen for long-term storage.
All receptor binding experiments were carried out in the corresponding assay buffer in a total volume of 200 μl in the presence of various concentrations of test compound (10^−5 M to 10^−9 M, tenfold serial dilution, duplicate determinations). The assays were terminated by filtration on polyethylenimine (PEI 0.1% or 0.3%) presoaked Packard Unifilter Plates (GF/C or GF/B) with a Tomtec MachIII U 96 well-plate harvester. After the plates had been dried for 2 h at 55° C. in a drying chamber scintillation cocktail (BetaPlate Scint; PerkinElmer) was added. Radioactivity was measured in a Microbeta Trilux two hours after the addition of the scintillation mixture. Data derived from liquid scintillation counting were analysed by iterative non-linear regression analysis with the use of the Statistical Analysis System (SAS): a program similar to “LIGAND” as described by Munson and Rodbard (Analytical Biochemistry 107, 220-239 (1980).
HEK293 cells stably expressing the h-5-HT6 receptor (NCBI Reference Sequence XM 001435) were cultured in RPMI1640 medium supplemented with 25 mM HEPES, 10% fetal calf serum and 1-2 mM glutamine. The membrane preparation was performed as described in section 1. […] Non-specific binding was defined with 1 μM methiothepin. The binding reaction was carried out for 3.5 h at room temperature. During the incubation, the plates were shaken on a plate shaker at 100 rpm and terminated by filtration on Packard Unifilter GF/C (0.1% PEI) plates, followed by 2 wash cycles with ice-cold 50 mM Tris-HCl, 5 mM CaCl2.
Data derived from liquid scintillation counting were analyzed by iterative non-linear regression analysis with the use of the Statistical Analysis System (SAS): a program similar to “LIGAND” as described by Munson and Rodbard (Anal. Biochem. 1980, 107, 220-239). Fitting was performed according to formulae described by Feldman (Anal. Biochem. 1972, 48, 317-338). IC50, nH and Ki values were expressed as geometrical mean.

dopamine D2 receptor = biological target: T2, dopamine D2 receptor (Homo sapiens, UniProt P14416); assay: Dopamine D2 receptor binding assay (displacement of [125I]-iodospiperone); details: saturation binding experiments, HEK293 D2 membranes; read-out: KD of radioligand
T2 construct: expressed in transfected cells
T2 sequence (P14416 whole entry): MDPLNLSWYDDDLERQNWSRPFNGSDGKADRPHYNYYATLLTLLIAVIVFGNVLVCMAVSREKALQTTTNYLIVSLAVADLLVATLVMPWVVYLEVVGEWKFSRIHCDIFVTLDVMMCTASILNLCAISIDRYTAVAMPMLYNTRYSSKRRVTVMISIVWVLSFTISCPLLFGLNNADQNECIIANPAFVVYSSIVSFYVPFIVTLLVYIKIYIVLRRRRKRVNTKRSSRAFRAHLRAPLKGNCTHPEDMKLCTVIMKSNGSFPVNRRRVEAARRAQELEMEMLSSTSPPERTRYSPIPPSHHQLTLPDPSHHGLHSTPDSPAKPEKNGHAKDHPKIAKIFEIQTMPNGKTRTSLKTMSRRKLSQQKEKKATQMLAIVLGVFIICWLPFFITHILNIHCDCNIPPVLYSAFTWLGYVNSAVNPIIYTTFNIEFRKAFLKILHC
Description: The pellets were stored at −80° C. until use. […] (Beckman Ultrazentrifuge XL 80).
Non-specific binding was defined with 1 μM haloperidol.

Molecule | Ki (h-5-HT6 receptor) [µM] | Kd (dopamine D2 receptor) [µM]
COc1ccc(S(=O)(=O)Nc2cc(C)ccc2OC(F)F)cc1C1CCNC1 (centres unmarked) [Example 1, N-(2-Difluoromethoxy-5-methyl-phenyl)-4-methoxy-3-pyrrolidin-3-yl-benzenesulfonamide hydrochloride] | < 0.01 | 
COc1ccc(S(=O)(=O)Nc2cc(C)ccc2OC(F)F)cc1C1CCN(C)C1 (centres unmarked) [Example 2, N-(2-Difluoromethoxy-5-methyl-phenyl)-4-methoxy-3-(1-methyl-pyrrolidin-3-yl)-benzenesulfonamide hydrochloride] | < 0.01 | 
COCc1ccccc1NS(=O)(=O)c1ccc(OC)c(C2CCNC2)c1 (centres unmarked) [Example 3, 4-Methoxy-N-(2-methoxymethyl-phenyl)-3-pyrrolidin-3-yl-benzenesulfonamide hydrochloride] | < 0.02 | 
COc1ccc(S(=O)(=O)Nc2cc(C)ccc2OC(F)F)cc1C1CCNCC1 [Example 4, N-(2-Difluoromethoxy-5-methyl-phenyl)-4-methoxy-3-piperidin-4-yl-benzenesulfonamide hydrochloride] | < 0.01 | 
COc1ccc(S(=O)(=O)Nc2ccc(C)cc2OC(F)F)cc1C1CCNCC1 [Example 5, N-(2-Difluoromethoxy-4-methyl-phenyl)-4-methoxy-3-piperidin-4-yl-benzenesulfonamide hydrochloride] | < 0.02 | 
COCc1ccccc1NS(=O)(=O)c1ccc(OC)c(C2CCNCC2)c1 [Example 6, 4-Methoxy-N-(2-methoxymethyl-phenyl)-3-piperidin-4-yl-benzenesulfonamide hydrochloride] | < 0.1 | 
COc1ccc(S(=O)(=O)Nc2cc(C)ccc2OC(F)F)cc1C1CCN(C)CC1 [Example 7, N-(2-Difluoromethoxy-5-methyl-phenyl)-4-methoxy-3-(1-methyl-piperidin-4-yl)-benzenesulfonamide hydrochloride] | < 0.01 | 
iodospiperone [[^125I]-iodospiperone] |  | 0.00022
